The data set addresses P-gp (ABCB1) ATPase (Homo sapiens, UniProt P08183). Nature of the data set: Stimulation of Pgp ATPase activity at 200 uM by Pgp-Glo assay system relative to control. Particulars: read-out: Fold change.

Each structure is given as a SMILES string. Counter-ions that a name gives are not always drawn.

Sequence of P-gp (ABCB1) ATPase (P08183 whole entry): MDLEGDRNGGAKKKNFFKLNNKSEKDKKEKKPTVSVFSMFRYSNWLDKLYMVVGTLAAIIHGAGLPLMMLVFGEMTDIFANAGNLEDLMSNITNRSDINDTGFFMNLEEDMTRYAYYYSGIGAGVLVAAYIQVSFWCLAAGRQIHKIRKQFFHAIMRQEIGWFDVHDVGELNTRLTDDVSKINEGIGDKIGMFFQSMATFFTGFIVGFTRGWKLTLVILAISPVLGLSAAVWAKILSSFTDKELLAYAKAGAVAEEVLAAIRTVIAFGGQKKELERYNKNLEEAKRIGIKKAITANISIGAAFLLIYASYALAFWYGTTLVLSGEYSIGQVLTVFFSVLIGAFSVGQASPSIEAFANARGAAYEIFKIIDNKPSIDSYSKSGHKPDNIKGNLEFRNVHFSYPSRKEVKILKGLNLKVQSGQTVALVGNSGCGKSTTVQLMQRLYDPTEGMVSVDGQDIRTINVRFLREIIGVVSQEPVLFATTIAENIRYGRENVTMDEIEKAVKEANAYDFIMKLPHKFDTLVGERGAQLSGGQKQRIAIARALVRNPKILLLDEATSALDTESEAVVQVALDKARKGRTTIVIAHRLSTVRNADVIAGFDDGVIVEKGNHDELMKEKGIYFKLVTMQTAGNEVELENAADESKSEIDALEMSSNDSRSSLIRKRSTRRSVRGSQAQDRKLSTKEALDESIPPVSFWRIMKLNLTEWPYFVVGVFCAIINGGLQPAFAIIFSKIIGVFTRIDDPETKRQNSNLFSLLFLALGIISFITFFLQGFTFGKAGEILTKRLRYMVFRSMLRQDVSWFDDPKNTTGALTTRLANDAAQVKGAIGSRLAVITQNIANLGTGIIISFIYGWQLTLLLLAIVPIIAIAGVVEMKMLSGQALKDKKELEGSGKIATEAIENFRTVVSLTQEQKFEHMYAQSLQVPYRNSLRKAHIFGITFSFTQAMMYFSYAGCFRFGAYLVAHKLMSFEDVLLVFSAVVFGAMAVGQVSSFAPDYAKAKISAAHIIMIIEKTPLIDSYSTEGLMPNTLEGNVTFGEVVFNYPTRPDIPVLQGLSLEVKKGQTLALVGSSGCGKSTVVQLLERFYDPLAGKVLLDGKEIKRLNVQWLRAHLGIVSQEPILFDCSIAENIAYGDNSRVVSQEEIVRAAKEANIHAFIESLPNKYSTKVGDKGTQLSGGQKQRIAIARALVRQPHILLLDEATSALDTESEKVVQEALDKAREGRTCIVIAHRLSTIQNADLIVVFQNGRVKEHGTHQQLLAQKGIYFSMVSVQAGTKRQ

Turning to `CCC(=O)C1(c2ccccc2)CCN(C)CC1`, the fold induction at 200 µM amounted to 1.37. The figure for `CCOC(=O)C1(c2cccc(O)c2)CCN(C)CC1` [BEMIDONE] is 2.64. The figure for `CCC(=O)C1(c2cccc(O)c2)CCN(C)CC1` [KETOBEMIDONE OXALATE] is 4.89. With `CCOC(=O)C1(c2ccccc2)CCN(C)CC1` [PETHIDINE OXALATE], the fold induction at 200 µM is 1.78.

The values are drawn from ChEMBL document CHEMBL1145568, “Opioids and efflux transporters. Part 3: P-glycoprotein substrate activity of 3-hydroxyl addition to meperidine analogs” (Bioorg Med Chem Lett, 2008).
